Experimental data taken from paper PMC10120462, “Styrylquinazoline derivatives as ABL inhibitors selective for different DFG orientations” (Journal of Enzyme Inhibition and Medicinal Chemistry, 2023).

Legend:
[1] = system: K562 cells; test: Cell cycle assay (Muse Cell-Cycle Kit, flow cytometry); type: cell-based, human; conditions: 16 h
Procedure: The interesting inhibitory potential of ABL kinase and the high antiproliferative activity of several styrylquinazoline derivatives prompted us to further investigate their mechanism of action.
K562 cells were seeded in 3 cm Petri dishes (Nunc) at a density of 150,000 cells per well and incubated under standard conditions at 37 °C for 24 h. […] After 16 h of treatment, assays were performed using a Muse Cell-Cycle Kit (Millipore) according to the supplier’s instructions. Briefly, leukaemia cells were collected, washed in cold PBS, and centrifuged. Cells were then fixed in ice-cold 70% ethanol and stored at −20 °C overnight. The next day, leukaemia cells were washed with cold PBS, centrifuged and resuspended in Muse™ Cell Cycle Reagent. Samples were incubated for 30 min at room temperature in the dark. After staining, the levels of cellular subpopulations in each cell cycle phase were determined using a Muse Cell Analyser (Millipore). Experiments were performed at least four times.

[2] = system: K562 cells; test: Immunoblotting; type: cell-based, human; conditions: 16 h
Excerpt: Changes in the expression of the BCR-ABL and ABL proteins and their downstream targets, such as STAT5, Src, Akt and Fyn after treatment with the tested compounds were also examined. As shown in Figure 7(B), no significant changes in the phosphorylation of BCR-ABL were observed after treatment with the tested styrylquinazolines. […] For reference inhibitors, there were greater changes in the expression of this protein. There were also interesting changes in the downstream targets of ABL, STAT5 and Src. […] Unfortunately, contrary to our assumptions and earlier results, IS1 was ineffective in inhibiting ABL, STAT5, and Src phosphorylation at the concentrations used. However, this derivative caused downregulation of Fyn expression, which could confirm its high inhibitory potential from in vitro kinase assays. […] Thus, these compounds were capable of blocking the pro-survival pathway facilitated by Akt kinase.
Prior to the experiment, K562 cells were seeded at a density of 500,000 cells per well in 3 cm Petri dishes (Nunc). […] After 16 h of exposure, cells were collected, centrifuged, and lysed on ice in complete RIPA buffer containing Halt Protease Inhibitor Cocktail, Halt Phosphatase Inhibitor Cocktail and 0.5 M EDTA (all from Thermo Scientific). Protein quantification was measured using a BCA Protein Assay Kit (Thermo Scientific) according to the manufacturer’s protocol. Equal amounts of the proteins were electrophoresed on SDS-page gels and transferred to nitrocellulose membranes. After blocking in 5% non-fat milk prepared in TTBS (Tris buffered saline with Tween 20), membranes were incubated overnight at 4 °C with specific primary antibodies (all from Cell Signalling) at a dilution of 1:1000 for c-ABL, phospho-c-ABL, Stat5, phospho-Stat5, cyclin E1, p27, PARP, AIF, BID, Src, Fyn, Akt, phospho-Akt, and at a dilution of 1:2000 for reference proteins (vinculin, β-actin and GAPDH). The next day, membranes were washed and incubated with horseradish peroxidase (HRP)-conjugated secondary antibodies for 1 h at room temperature. Chemiluminescence signals were recorded after staining with SuperSignal™ West Pico Chemiluminescent Substrate (Thermo Scientific) using a ChemiDoc™ XRS + System (BioRad). Experiments were performed four to five times. Densitometric analysis was performed using ImageJ software (Wayne Rasband, National Institutes of Health, USA).

[3] = molecular target: T1, Lyn B (Homo sapiens, UniProt P07948); test: Tyrosine kinase assay (Kinase Selectivity System TK-2, ADP-Glo); type: biochemical; conditions: 1 h incubation, mean ± SD of four experiments
T1 construct: purchased Promega

[4] = molecular target: T2, BRK (Homo sapiens, UniProt Q13882); test: as above; type: biochemical; conditions: 1 h incubation, mean ± SD of four experiments
T2 construct: purchased Promega

[5] = molecular target: T3, Fyn A (Homo sapiens, UniProt P06241); test: as above; type: biochemical; conditions: 1 h incubation, mean ± SD of four experiments
T3 construct: purchased Promega
Excerpt: All newly synthesised derivatives were screened for their inhibitory potential towards eight non-receptor tyrosine kinases, such as ABL, BTK, BRK and Src family kinases, such as CSK, Lyn, Lck, Fyn and Src. […] To facilitate the analysis of the structure and enzymatic activity, all tested compounds were divided into four subgroups based on the main structural scaffolds (the general structure of each group is shown in the second column of Table 1). Series A, B, and C were subdivided according to the S^4-aryl substituent, while D represents the different styryl groups at the C^2-quinazoline position.
Herein, we used a kinase assay that contained fully expressed kinases with their regulatory domains, which are responsible for autoinhibition. The proteins are present in their unphosphorylated form and the procedure required supplementation with ATP. Importantly, autophosphorylation of ABL is dependent on […] concentration of the protein. Thus, our experimental conditions reflect the cellular process to be simulated. The luminescence signal detected after one hour of incubation with a peptide substrate was a measure of inhibition. Under these conditions, the question of whether the inhibitors tested bind to the ortho or allosteric site of the protein could be answered. […] To test this hypothesis, further molecular docking experiments were performed to more precisely determine the binding of the tested compounds to the ABL kinase.
To determine the inhibition of non-receptor tyrosine kinases, assays were performed using the kinase selectivity system TK-2 and the ADP-Glo Kinase Assay (both from Promega). The protocol was previously developed by our group and described in reports[12]^,[36]. Experiments were performed at least four times. Data are expressed as percentage of tyrosine kinase inhibitory activity after treatment with the derivatives tested.

[6] = molecular target: T4, CSK (Homo sapiens, UniProt P41240); test: as above; type: biochemical; conditions: 1 h incubation, mean ± SD of four experiments
T4 construct: purchased Promega

[7] = molecular target: T5, BTK (Homo sapiens, UniProt Q06187); test: as above; type: biochemical; conditions: 1 h incubation, mean ± SD of four experiments
T5 construct: purchased Promega

[8] = system: K562 cells; test: Analysis of mRNA expression (RT-qPCR); type: cell-based, human; conditions: 16 h; IS1 50 µM, IS8 12 µM, IS10 20 µM, imatinib 2 µM, GNF-2 2 µM
Excerpt: In the next step, the inhibitory potential of the tested compounds at the gene and protein levels was verified in K562 cells. For this purpose, we examined changes in the expression of the ABL signalling pathway and ABL downstream targets after exposure to IS1, IS8 and IS10. […] The enhanced transcription of the ABL gene might be related to the low protein level that was reached after exposure to the tested drugs. Thus, the cellular machinery could induce increased protein synthesis to counteract the effects of inhibition. […] The second gene studied, SRC, is involved in signal transduction from growth factors and receptors. Similar to ABL, the Src protein has oncogenic activity and is overexpressed in cancer cells. It is also important to emphasise that both kinases form a specific direct signalling network, as […].
Reverse transcription was carried out with 1 μg total RNA using a ProtoScript M-MuLV First Strand cDNA Synthesis Kit (New England BioLabs). The RT-qPCR was performed using a CTX96 Real-Time PCR Detection System (Biorad) in a 10 μL reaction volume containing Luna Universal qPCR Master Mix (New England BioLabs), specific primer pair mix and cDNA. The PCR reaction was performed as follows: initial denaturation at 95 °C for 60 s; followed by 40 cycles of denaturation at 95 °C, 15 s; annealing (primer-specific temperature for 30 s) and extension at 72 °C for 30 s. Melting curve analysis was used to determine the specific PCR products. The results were analysed based on comparison of the expression of the target genes with the reference gene – HPRT1 using the 2^−^ΔΔ^CT method. Experiments were performed at least four times.

T5 sequence (Q06187 whole entry): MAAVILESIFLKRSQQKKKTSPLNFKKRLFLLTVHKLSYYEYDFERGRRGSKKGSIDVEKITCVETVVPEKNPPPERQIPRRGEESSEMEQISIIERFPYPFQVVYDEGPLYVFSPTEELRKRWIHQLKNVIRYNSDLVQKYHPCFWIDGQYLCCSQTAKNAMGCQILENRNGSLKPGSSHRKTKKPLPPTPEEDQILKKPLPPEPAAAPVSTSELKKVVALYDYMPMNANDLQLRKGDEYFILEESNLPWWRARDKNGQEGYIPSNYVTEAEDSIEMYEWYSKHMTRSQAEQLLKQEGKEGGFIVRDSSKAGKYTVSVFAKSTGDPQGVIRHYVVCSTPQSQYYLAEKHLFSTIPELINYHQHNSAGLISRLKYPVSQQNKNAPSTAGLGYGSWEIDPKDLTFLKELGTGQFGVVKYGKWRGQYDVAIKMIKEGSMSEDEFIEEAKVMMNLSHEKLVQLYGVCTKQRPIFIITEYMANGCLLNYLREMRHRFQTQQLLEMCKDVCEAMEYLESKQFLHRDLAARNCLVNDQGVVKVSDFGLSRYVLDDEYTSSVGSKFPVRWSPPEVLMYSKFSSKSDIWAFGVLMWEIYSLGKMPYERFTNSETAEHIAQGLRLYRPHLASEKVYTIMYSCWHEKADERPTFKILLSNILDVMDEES
T2 sequence (Q13882 whole entry): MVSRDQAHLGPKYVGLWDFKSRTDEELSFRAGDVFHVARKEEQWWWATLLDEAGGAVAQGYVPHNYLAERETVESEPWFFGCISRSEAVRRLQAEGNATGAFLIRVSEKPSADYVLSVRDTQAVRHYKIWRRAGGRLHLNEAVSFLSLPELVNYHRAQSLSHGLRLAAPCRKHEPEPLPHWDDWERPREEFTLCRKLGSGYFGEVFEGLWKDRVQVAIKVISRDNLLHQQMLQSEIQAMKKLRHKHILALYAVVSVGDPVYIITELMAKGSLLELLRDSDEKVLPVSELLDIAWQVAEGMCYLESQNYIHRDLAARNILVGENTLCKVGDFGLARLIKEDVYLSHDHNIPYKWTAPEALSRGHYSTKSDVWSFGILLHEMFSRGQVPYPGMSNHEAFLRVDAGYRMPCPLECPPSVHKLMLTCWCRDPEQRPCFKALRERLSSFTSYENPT
T3 sequence (P06241 whole entry): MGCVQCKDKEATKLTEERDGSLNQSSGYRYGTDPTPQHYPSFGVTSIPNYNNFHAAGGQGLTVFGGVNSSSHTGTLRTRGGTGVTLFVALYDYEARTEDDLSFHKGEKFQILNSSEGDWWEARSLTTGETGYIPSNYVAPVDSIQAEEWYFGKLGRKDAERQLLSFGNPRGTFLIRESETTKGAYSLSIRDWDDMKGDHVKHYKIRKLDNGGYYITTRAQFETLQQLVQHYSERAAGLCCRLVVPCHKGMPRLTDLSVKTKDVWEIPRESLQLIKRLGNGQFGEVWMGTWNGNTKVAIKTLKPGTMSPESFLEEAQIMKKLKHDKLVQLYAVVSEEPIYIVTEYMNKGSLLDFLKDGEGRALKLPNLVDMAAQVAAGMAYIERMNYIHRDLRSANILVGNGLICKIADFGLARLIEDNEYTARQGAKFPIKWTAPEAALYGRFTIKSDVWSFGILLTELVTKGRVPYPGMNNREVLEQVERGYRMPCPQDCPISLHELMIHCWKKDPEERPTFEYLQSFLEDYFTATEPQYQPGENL
T1 sequence (P07948 1-491 isoform P07948-2): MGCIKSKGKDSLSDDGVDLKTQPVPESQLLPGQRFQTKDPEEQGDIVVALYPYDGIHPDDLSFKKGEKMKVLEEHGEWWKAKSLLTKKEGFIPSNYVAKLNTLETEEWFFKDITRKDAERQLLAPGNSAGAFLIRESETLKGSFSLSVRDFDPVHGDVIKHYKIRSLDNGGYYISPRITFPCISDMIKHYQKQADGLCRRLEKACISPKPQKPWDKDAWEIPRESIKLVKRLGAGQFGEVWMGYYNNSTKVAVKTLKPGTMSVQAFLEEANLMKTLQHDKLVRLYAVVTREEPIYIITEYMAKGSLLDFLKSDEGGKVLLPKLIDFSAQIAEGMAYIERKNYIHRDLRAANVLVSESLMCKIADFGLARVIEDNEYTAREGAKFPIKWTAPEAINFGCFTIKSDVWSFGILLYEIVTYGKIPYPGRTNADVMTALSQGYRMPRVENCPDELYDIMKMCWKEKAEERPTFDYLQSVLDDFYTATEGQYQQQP

inhibition at 0.5 µM [3]: 0%
inhibition at 0.5 µM [4]: 0%
inhibition at 0.5 µM [5]: 0%
inhibition at 0.5 µM [6]: 0%
inhibition at 0.5 µM [7]: 0%
SMILES: Cc1ccc(NC(=O)c2ccc(CN3CCN(C)CC3)cc2)cc1Nc1nccc(-c2cccnc2)n1 [Imatinib, imatinib, reference compound]
Cell cycle arrest (phase) [1]: inhibition of G0/G1 phase
AIF protein [2]: significant increase
Src protein expression / phosphorylation [2]: significant accumulation
STAT5 phosphorylation ([2]; at the concentrations used): stronger effect
CCNE2 expression (mRNA) [8]: increase
Expression of the ABL gene (mRNA) [8]: slight non-significant decrease
SRC mRNA levels [8]: significant decrease
